In BindingDB's records for doi:10.7270/Q2H70D5W (University of Pittsburgh, 2007):
pIC50: −log10 of the molar value.

molecular target: Gag-Pol polyprotein (Human immunodeficiency virus type 1 group M subtype B (isolate HXB2), UniProt P04585); experiment: HIV-1 RT RNase H inhibitor potency, dose response, biochemical, probe assessment (AID 652); conditions: pH 8; 23 °C

First: O=C(COc1ccc(Br)cc1)Nc1ccc(-c2nnc(-c3ccco3)o2)cc1 [2-(4-bromanylphenoxy)-N-[4-[5-(furan-2-yl)-1,3,4-oxadiazol-2-yl]phenyl]ethanamide]
Second: COc1ccc(CC(=O)Nc2ccc(-c3noc(-c4cccc(OC)c4)n3)cc2)cc1 [2-(4-methoxyphenyl)-N-[4-[5-(3-methoxyphenyl)-1,2,4-oxadiazol-3-yl]phenyl]acetamide]
The pIC50 of the first is 0.31 log units lower: 5.20 for the first, 5.51 for the second. The second is the more potent here.

First: CCOC(=O)C(C(C)=O)c1c(Br)c(O)c(O)c2c(C(=O)c3ccc(C)cc3)coc12 (stereo not drawn) [2-(6-bromo-4,5-dihydroxy-3-p-toluoyl-benzofuran-7-yl)-3-keto-butyric acid ethyl ester]
Second: CCOC(=O)c1c(NC(=O)c2ccc(-n3cnnn3)cc2)sc2c1CCCC2 [2-[[4-(tetrazol-1-yl)benzoyl]amino]-4,5,6,7-tetrahydrobenzothiophene-3-carboxylic acid ethyl ester]
The pIC50 of the first is 0.83 log units higher: 6.38 for the first, 5.55 for the second. The first is the more potent here.

`COc1ccc2ccccc2c1C1CC(=O)N2CN(C3CCCCC3)CSC2=C1C#N` (stereo not drawn) [3-cyclohexyl-8-(2-methoxynaphthalen-1-yl)-6-oxo-2,4,7,8-tetrahydropyrido[2,1-b][1,3,5]thiadiazine-9-carbonitrile] and `COc1cc(OC)c(C2CC(=O)N3CN(c4ccccc4C)CSC3=C2C#N)cc1OC` (stereo not drawn) [MLS000080656] are within 0.2 log units of each other in pIC50: 5.44 for the first, 5.35 for the second.

`CCC1CCCCN1S(=O)(=O)c1ccc(S(=O)(=O)N2CCN(S(=O)(=O)CC)CC2)cc1` (stereo not drawn) [1-Ethanesulfonyl-4-[4-(2-ethyl-piperidine-1-sulfonyl)-benzenesulfonyl]-piperazine] and `O=S(=O)(c1ccc(S(=O)(=O)N2CCN(C/C=C/c3ccccc3)CC2)cc1)N1CCCC1` [1-[(E)-3-phenylprop-2-enyl]-4-(4-pyrrolidin-1-ylsulfonylphenyl)sulfonyl-piperazine] are the same in pIC50: 4.91 for the first, 4.91 for the second.

Compared with `CN1CCN(C(=O)c2sc(=S)n(-c3ccccc3)c2N)CC1` [(4-amino-3-phenyl-2-sulfanylidene-1,3-thiazol-5-yl)-(4-methylpiperazin-1-yl)methanone], `Cc1ccc(-n2c(N)c(C(=O)N3CCOCC3)sc2=S)cc1` [4-amino-3-(4-methylphenyl)-5-(4-morpholinylcarbonyl)-1,3-thiazole-2(3H)-thione] is 0.33 log units lower in pIC50: 5.64 for the first, 5.31 for the second. The first is the more potent here.

Going from `c1ccc2c(c1)OCC(c1nnc3sc(-c4ccc5c(c4)OCO5)nn13)O2` (stereo not drawn) [6-(1,3-benzodioxol-5-yl)-3-(2,3-dihydro-1,4-benzodioxin-3-yl)-[1,2,4]triazolo[3,4-b][1,3,4]thiadiazole] to `COc1cc(-c2nnc3sc(-c4cccnc4)nn23)cc(OC)c1OC` [6-(3-pyridinyl)-3-(3,4,5-trimethoxyphenyl)-[1,2,4]triazolo[3,4-b][1,3,4]thiadiazole], the pIC50 falls from 5.84 to under 4.30. The first is the more potent here.

First: COc1ccc(N2CCN(Cc3cc(=O)oc4cc(-c5ccccc5)c(O)cc34)CC2)cc1 [4-[[4-(4-methoxyphenyl)piperazin-1-yl]methyl]-6-oxidanyl-7-phenyl-chromen-2-one]
Second: O=C1CC(c2ccco2)Cc2nc(Nc3nc(-c4ccccc4)c4ccccc4n3)ncc21 (stereo not drawn) [7-(2-furanyl)-2-[(4-phenyl-2-quinazolinyl)amino]-7,8-dihydro-6H-quinazolin-5-one]
The pIC50 of the first is 0.55 log units higher: 5.41 for the first, 4.86 for the second.

Going from `CC(C)OC(=O)CSc1nnc(-c2ccc(C(C)(C)C)cc2)n1N` [2-[[4-amino-5-(4-tert-butylphenyl)-1,2,4-triazol-3-yl]thio]acetic acid isopropyl ester] to `CC(C)(C)C1=Nn2c(nnc2-c2ccccn2)SC1` [6-tert-butyl-3-(2-pyridinyl)-7H-[1,2,4]triazolo[3,4-b][1,3,4]thiadiazine], the pIC50 rises from under 4.30 to 5.14. The second is the more potent here.

`Cc1cccc(C(=O)OCC(=O)Nc2ccc(N3CCCCC3)cc2)c1O` [2-hydroxy-3-methyl-benzoic acid [2-keto-2-(4-piperidinoanilino)ethyl] ester] and `Cc1ccc(NC(=O)CSc2nnc(-c3ccc(S(=O)(=O)N4CCCC4)cc3)o2)cc1C` [MLS000071775] are within 0.2 log units of each other in pIC50: 4.88 for the first, 4.91 for the second.

Compared with `CCC(C)c1ccc2oc(-c3ccc(NC(=O)c4nnc[nH]4)cc3)nc2c1` (stereo not drawn) [N-[4-(5-sec-butyl-1,3-benzoxazol-2-yl)phenyl]-1H-1,2,4-triazole-3-carboxamide], `CCOc1ccc(S(=O)(=O)Nc2cc(Sc3nnc[nH]3)c3oc(=O)sc3c2)cc1` [4-ethoxy-N-[2-oxo-7-(1H-1,2,4-triazol-5-ylsulfanyl)-1,3-benzoxathiol-5-yl]benzenesulfonamide] is 0.38 log units higher in pIC50: 5.22 for the first, 5.60 for the second.

Going from `O=C1CCCC(=O)C1C(C#Cc1ccccc1)C1C(=O)CCCC1=O` [3-hydroxy-2-[1-(2-hydroxy-6-keto-cyclohexen-1-yl)-3-phenyl-prop-2-ynyl]cyclohex-2-en-1-one] to `O=C(NCCc1ccccc1)c1c(O)n2c3c(cccc3c1=O)CC2` [6-Hydroxy-4-oxo-1,2-dihydro-4H-pyrrolo[3,2,1-ij]quinoline-5-carboxylic acid phenethyl-amide], the pIC50 falls from 5.96 to 5.00 (0.96 log units). The first is the more potent here.

Going from `CCOC(=O)c1sc(NC(=O)CSc2nnc(-c3ccccc3)[nH]2)c(C#N)c1C` [ethyl 4-cyano-3-methyl-5-[[2-[(5-phenyl-1H-1,2,4-triazol-3-yl)sulfanyl]acetyl]amino]thiophene-2-carboxylate] to `C=CCOC(=O)C1=C(C)N=C(SCC(=O)Nc2ccc(C)c(Cl)c2)C(C#N)C1c1ccco1` (stereo not drawn) [prop-2-enyl 6-[2-(3-chloro-4-methylanilino)-2-oxoethyl]sulfanyl-5-cyano-4-(furan-2-yl)-2-methyl-1,4-dihydropyridine-3-carboxylate], the pIC50 falls from 6.17 to 5.37 (0.80 log units).

First: CCOC(=O)N1CCc2c(sc3c2C(=O)NC(c2ccc(-c4ccc(Cl)cc4)o2)N3)C1 (stereo not drawn) [2-[5-(4-chlorophenyl)-2-furanyl]-4-oxo-1,2,3,5,6,8-hexahydropyrido[2,3]thieno[2,4-d]pyrimidine-7-carboxylic acid ethyl ester]
Second: CCOc1ccc(-n2c(=O)c3c4c(sc3n(CC(=O)NCc3ccco3)c2=O)CCC4)cc1 [2-(1,3-diketo-2-p-phenetyl-7,8-dihydro-6H-cyclopenta[2,3]thieno[2,4-b]pyrimidin-4-yl)-N-(2-furfuryl)acetamide]
The pIC50 of the first is 0.63 log units higher: 5.28 for the first, 4.65 for the second. The first is the more potent here.

Going from `O=C(Nc1nc(-c2ccncc2)cs1)c1ccco1` [MLS000053154] to `O=C(NCc1ccco1)c1cc2cc3ccc(Cl)cc3nc2o1` [7-chloranyl-N-(furan-2-ylmethyl)furo[2,3-b]quinoline-2-carboxamide], the pIC50 falls from 5.25 to 4.72 (0.53 log units). The first is the more potent here.

`O=c1c(=Cc2cccn2-c2ccccc2)sc2nc3ccccc3n12` [2-[(1-phenyl-2-pyrrolyl)methylidene]-1-thiazolo[3,2-a]benzimidazolone] and `c1ccc(Cc2nn3c(Cn4nnc5ccccc54)nnc3s2)cc1` [3-(1-benzotriazolylmethyl)-6-(phenylmethyl)-[1,2,4]triazolo[3,4-b][1,3,4]thiadiazole] are within 0.2 log units of each other in pIC50: 5.55 for the first, 5.74 for the second.

Going from `O=C(O)c1ccc2c(c1)NC(=O)C(N1CCCC1)S2` (stereo not drawn) [3-keto-2-pyrrolidino-4H-1,4-benzothiazine-6-carboxylic acid] to `Cc1nn(CCC#N)c2c1P(=S)(N1CCCC1)OC(c1ccc(F)cc1)=N2` (stereo not drawn) [3-[3-(4-fluorophenyl)-7-methyl-1-(1-pyrrolidinyl)-1-sulfanylidene-5-pyrazolo[4,3-c][1,5,2]oxazaphosphorinyl]propanenitrile], the pIC50 rises from 5.43 to 6.06 (0.63 log units). The second is the more potent here.

Compared with `O=c1ccc2cc3c([nH]c4ccc(Br)cc43)oc-2c1O` [9-bromo-4-hydroxy-6H-[1]benzopyrano[2,3-b]indol-3-one], `CC(=O)N(Cc1cc(=O)[nH]c2ccccc12)c1cccc(C)c1` [N-(3-methylphenyl)-N-[(2-oxidanylidene-1H-quinolin-4-yl)methyl]ethanamide] is 0.54 log units lower in pIC50: 5.83 for the first, 5.29 for the second.

`COc1ccc(N2CSC3=C(C#N)C(c4cc(OC)c(OC)cc4OC)CC(=O)N3C2)c(OC)c1` (stereo not drawn) [MLS000117261] and `COc1ccc(N2CSC3=C(C#N)C(c4ccc(OC)c(OC)c4)CC(=O)N3C2)c(OC)c1` (stereo not drawn) [3-(2,4-dimethoxyphenyl)-8-(3,4-dimethoxyphenyl)-6-oxidanylidene-2,4,7,8-tetrahydropyrido[2,1-b][1,3,5]thiadiazine-9-carbonitrile] are within 0.2 log units of each other in pIC50: 4.92 for the first, 4.75 for the second.

Going from `Cc1noc(C)c1CSc1nc2cc(S(=O)(=O)N3CCOCC3)ccc2o1` [2-[(3,5-dimethyl-1,2-oxazol-4-yl)methylsulfanyl]-5-morpholin-4-ylsulfonyl-1,3-benzoxazole] to `CCOC(=O)CSc1nc2cc(C(=O)NCc3ccco3)ccc2c(=O)n1C1CCCCC1` [2-[[3-cyclohexyl-7-(2-furfurylcarbamoyl)-4-keto-quinazolin-2-yl]thio]acetic acid ethyl ester], the pIC50 falls from 5.64 to 5.22 (0.42 log units). The first is the more potent here.

`O=C(CCCn1c(SCC(=O)c2ccc(O)c(O)c2)nc2ccccc2c1=O)NCC1CCCO1` (stereo not drawn) [4-[2-[2-(3,4-dihydroxyphenyl)-2-oxoethyl]sulfanyl-4-oxoquinazolin-3-yl]-N-(oxolan-2-ylmethyl)butanamide] and `CCCc1nc2ccccc2c(=O)n1N=Cc1ccc(O)c(O)c1` are within 0.2 log units of each other in pIC50: 6.06 for the first, 6.12 for the second.

Going from `Cc1cc(C)c2oc(-c3ccc(Cl)c(NC(=O)c4ccc(C#N)cc4F)c3)nc2c1` [MLS000052597] to `Cc1cc(C)c(NC(=O)Cn2c(=O)n(Cc3ccco3)c(=O)c3ccccc32)c(C)c1` [2-[3-(2-furanylmethyl)-2,4-dioxo-1-quinazolinyl]-N-(2,4,6-trimethylphenyl)acetamide], the pIC50 falls from 5.56 to 4.32 (1.24 log units).

`C=CCSc1nc2c(c(=O)[nH]c(=O)n2C)n1CC` [7-ethyl-3-methyl-8-prop-2-enylsulfanylpurine-2,6-dione] and `CCC1CC2(C)NC(=O)c3c(sc4c3CC(C)(C)OC4)N2C1=O` (stereo not drawn) [MLS000077638] are within 0.2 log units of each other in pIC50: 5.43 for the first, 5.54 for the second.

First: c1ccc(-c2ccc(-c3ccccn3)nn2)nc1 [3,6-bis(2-pyridinyl)pyridazine]
Second: CCOC(=O)Cc1csc(-n2sc3ccccc3c2=O)n1 [MLS000082162]
The pIC50 of the first is 1.41 log units lower: 4.81 for the first, 6.22 for the second.

Going from `CCOc1cc(C2c3c(oc4cc(C)c(Cl)cc4c3=O)C(=O)N2Cc2ccco2)ccc1O` (stereo not drawn) [7-chloranyl-1-(3-ethoxy-4-oxidanyl-phenyl)-2-(furan-2-ylmethyl)-6-methyl-1H-chromeno[2,3-c]pyrrole-3,9-dione] to `O=C(c1ccccc1F)N1CCN(S(=O)(=O)c2ccc(S(=O)(=O)N3CCCCC3)cc2)CC1` [(2-Fluoro-phenyl)-{4-[4-(piperidine-1-sulfonyl)-benzenesulfonyl]-piperazin-1-yl}-methanone], the pIC50 falls from 5.16 to 4.36 (0.80 log units). The first is the more potent here.
